We go through three compounds from patent US8669088B2, “Enzyme associated with equol synthesis” (Otsuka Pharmaceutical Co., Ltd., priority 2007, dated 2014).

For one experiment, the system named is dihydrodaidzein. Put plainly: Tetrahydrodaidzein biosynthesis activity in centrifuged supernatant of disrupted cell material and NADH or NADPH dependency (Example B2). The following applies: centrifuged supernatant of disrupted cells; 37° C., 2 hours; HPLC (FIG. 11). Format: biochemical, Lactococcus 20-92 strain. On the procedure: The frozen cells were thawed and centrifuged at 4° C. for 15 minutes (5,000×G). The pellet was used in the test below. First, the pellet (wet weight 2.7 g) was suspended in 10 ml of a 0.1 M phosphate-potassium solution containing 1 mM PMSF and 5 mM sodium hydrosulfite. After preheating at 37° C. for 5 minutes, lysozyme was added in an amount of 100 mg per gram of the pellet (wet weight) to cause a reaction at 37° C. for 1.5 hours. Then, an equivalent amount of 0.1 M dipotassium phosphate solution was added to the reaction mixture, and the mixture was vigorously agitated with a vortex mixer after adding zirconia-silica beads (3 ml). The cells were then disrupted with a sonicator (Branson Sonifier Cell Disruptor 200) (3 cycles of a 5-minute sonication and a 2-minute rest). The disrupted cell suspension was centrifuged at about 10,000×G for 15 minutes to obtain a supernatant, which was then used as an enzyme source. An enzyme reaction mixture of the composition below was prepared, and was incubated at 37° C. for 2 hours. After incubation, 5 mL of ethyl acetate was added to the enzyme reaction product for extraction. Then, the product was dried to prepare a sample for HPLC analysis. [table]

A further experiment concerns daidzein. Kind of experiment: Dihydrodaidzein biosynthesis activity in centrifuged supernatant of disrupted cell material and coenzyme dependency (Example A1). Particulars: supernatant of disrupted cells; 37° C., 2 hour; HPLC (FIG. 1). It is filed as biochemical, Lactococcus 20-92 strain. The procedure: The frozen cells (67 mL bottle×2) were thawed, and centrifuged at 4° C. at 8,000 rpm for 10 minutes. The pellet was used in the test below. First, the pellet was suspended in 2 ml of a 0.1 M phosphate-potassium solution containing 1 mM PMSF (Wako Pure Chemical Industries, Ltd.), 2 mM DTT (Wako Pure Chemical Industries, Ltd.) and 5 mM sodium hydrosulfite (Wako Pure Chemical Industries, Ltd.). The suspension was supplied to two 2 ml tubes with screw caps (Assist) and pre-supplemented with […] zirconia/silica beads (BioSpec Products, Inc.). The cells were disrupted using FastPrep® FP100A (Thermo ELECTRON CORPORATION) (6500 rpm, 10 seconds, ice cooling×8). The resulting liquid was centrifuged to obtain supernatant. The suspension of disrupted cell was centrifuged at about 10,000 rpm at 4° C. for 10 minutes to obtain a supernatant, which was then diluted to 4.5 mL with 0.1 M potassium phosphate solution containing 1 mM PMSF, 2 mM DTT and 5 mM sodium hydrosulfite. This was used as an enzyme source.
An enzyme reaction mixture of the composition below was prepared, and the mixture was incubated at 37° C. for 2 hour. After incubation, 3 mL of ethyl acetate was added to the enzyme reaction mixture for extraction. After drying, the extract was dissolved by the mobile phase (eluent). The dissolved product was analyzed by HPLC. […]

Experiment [1] relates to dihydrodaidzein synthesis enzyme gene. Put plainly: Induction of expression of dihydrodaidzein synthesis enzyme gene by daidzein, RT-PCR (Example A7). It is filed as cell-based, Lactococcus 20-92 strain. Particulars: 10 mg/L daidzein in modified GAM broth, eight hours, 37° C., anaerobic; RT-PCR (FIG. 6). The procedure: Sealed Lactococcus 20-92 strain kept at 4° C. was incubated for eight hours in a modified GAM broth culture medium, that contains 10 mg/L daidzein (Funakoshi Co., Ltd.) or no daidzein, at 37° C. under an anaerobic condition. 25 mL of the culture solution was transferred to a 50 mL tube, and centrifuged for ten minutes at 3500 rpm, 4° C. The culture medium was removed by decantation and cells were collected. The collected cells were immediately frozen by liquid nitrogen. Then, the entire RNA was extracted and purified using 1 mL of TRIzol solution (Invitrogen) according to the instruction. The purified entire RNA was processed by DNase I (Invitrogen) to remove the genome DNA, and used for synthesis of first-strand cDNA.
From 2 μg of the entire RNA thus processed by DNaseI, the first-strand cDNA (reverse transcription) was synthesized using SuperScript® First-Strand Synthesis System for RT-PCR (Invitrogen). The synthesis of the first-strand cDNA was carried out using Random Hexamer mix as an extension primer according to the instruction. […] The final reaction liquid was used as a template for RT-PCR.
The dihydrodaidzein synthesis enzyme gene was amplified through RT-PCR using the four final reaction products as detailed in (2) of the present Example as templates. The expression amounts were compared with each other. […]

The next experiment relates to Lactococcus 20-92 strain. Kind of experiment: Equol biosynthetic activity of bacterial cell from tetrahydrodaidzein (Example C1). It is filed as cell-based. The following applies: 10 μg/mL in medium; 37° C., 18 hours, anaerobic; HPLC (FIG. 20). The procedure:
A Lactococcus 20-92 strain (FERM BP-10036) was inoculated in a tetrahydrodaidzein-containing amplification liquid medium (a modified GAM bouillon medium (NISSUI PHARMACEUTICAL CO., LTD.) to which cis- or trans-tetrahydrodaidzein (organically-synthesized by Otsuka Pharmaceutical Co., Ltd.: see Reference Example B1) was added in an amount of 10 μg/mL), and the culture was incubated at 37° C. for 18 hours under anaerobic conditions (using BBL Gas Pack systems). After incubation, 1 mL of the culture was immediately placed in a glass centrifuge tube with cap, and 3 mL of ethyl acetate was added thereto for extraction. The product was dried to prepare a sample for HPLC analysis. As the standard solution for HPLC analysis, a mixed solution of daidzein (2 μg/mL; Funakoshi Corporation), equol (2 μg/mL; Funakoshi Corporation), dihydrodaidzein (2 μg/mL; Trend Research Chemicals Inc.), cis-tetrahydrodaidzein and trans-tetrahydrodaidzein (2 μg/mL; both chemically-synthesized by Otsuka Pharmaceutical Co., Ltd.) was used.

Experiment [2] concerns disrupted cell material of Lactococcus 20-92 strain. Put plainly: Enzyme reaction with disrupted cell material of Lactococcus 20-92 strain as enzyme source (Example B1). Particulars: 10 μg/mL substrate; 2 mM NADPH, 2 mM NADH; 37° C., 2 hours; HPLC (FIG. 10). Format: biochemical. On the procedure: The Lactococcus 20-92 strain cells preserved at −80° C. were quickly thawed. The cells were suspended by tapping, and centrifuged at 4° C. (8,000 rpm×5 min) using a centrifuge VC-960 (Taitec). After removing the supernatant, 0.1 M potassium phosphate buffer/1 mM PMSF (phenylmethanesulfonyl fluoride)/2 mM DTT (dithiothreitol)/5 mM sodium hydrosulfite (pH 7.0) were added to obtain a cell suspension. The cell suspension was placed in a 2 ml tube prepared to include zirconia-silica beads (about 0.8 mL, 0.1 mm, 1 lb; Wakenyaku Co., Ltd.), and the tube was charged with 0.1 M potassium phosphate solution/1 mM PMSF/2 mM DTT/5 mM sodium hydrosulfite (pH 7.0) to fill the tube almost completely. For disruption, the tube was closed and kept on ice, where a cycle of 6,500 rpm×20 sec centrifugation and ice-cooling was repeated four times using FastPrep®-FP100A (Thermo Electron Corporation). The resulting disrupted cell material was used as an enzyme source in an enzyme reaction.
A 1 mL enzyme reaction mixture of the composition below, containing 0.1 ml of the disrupted cell material obtained in (1) was prepared, and the mixture was incubated at 37° C. for 2 hours. After incubation, 3 mL of ethyl acetate was added to the resulting enzyme reaction product for extraction. The product was dried to prepare a sample for HPLC analysis. […]

With `NC(=O)C1=CN([C@@H]2O[C@H](COP(=O)(O)OP(=O)(O)OC[C@H]3O[C@@H](n4cnc5c(N)ncnc54)[C@H](O)[C@@H]3O)[C@@H](O)[C@H]2O)C=CC1` [NADH], the “coenzyme dependency of the conversion of dihydrodaidzein into tetrahydrodaidzein” value in the experiment on dihydrodaidzein is “dependent”. In addition, in the experiment on daidzein, the “coenzyme dependency of the conversion of daidzein into dihydrodaidzein” value was “dependent”.
As to `O=c1c(-c2ccc(O)cc2)coc2cc(O)ccc12` [daidzein, 4′,7-dihydroxy isoflavone], the “expression of mRNA of dihydrodaidzein synthesis enzyme gene” value in experiment [1] is “induced the expression of mRNA”.
As to `Oc1ccc(C2COc3cc(O)ccc3C2O)cc1` (stereo not drawn) [cis-tetrahydrodaidzein], the “equol biosynthesis from tetrahydrodaidzein by bacterial culture” value with Lactococcus 20-92 strain is “activity to biosynthesize equol”. Moreover, the “production of equol from tetrahydrodaidzein by enzyme reaction” value in experiment [2] is listed as “equol was produced”.
